pIC50: −log10 of the molar value. Where “and” joins values, the source holds several entries; their conditions need not be identical. Equal values may be shown once.
What was measured:
aorta tissue = assay: Inhibition of calcium dependent smooth muscle contraction, aorta (P#176 Aorta); set-up: species or system dog; settings: Canis lupus familiaris, 50 mM KCl contraction, read-out: P#176 Aorta % INHB/μM
Description: (§1) The test for inhibition of calcium dependent smooth muscle contraction is determined according to the following procedure:
(§2) The trachea and the aorta from dogs sacrificed by excess KCl injection are stored overnight at 4° C. in oxygenated Krebs-Henseleit buffer. Tracheal rings, one cartilage segment wide (5-10 mm), are cut starting from the bronchial end. Rings of aorta tissue of the same width are also prepared. After cutting the cartilage, the trachealis muscle tissue and the aorta tissue are suspended in oxygenated Krebs-Henseleit buffer at 37° C. in a 25 ml tissue bath. After a 60-minute equilibration period, the tissues are challenged with 10 μM carbachol. After 5 minutes, the tissues are rinsed and allowed to rest 50 minutes. The tissues are then challenged with 50 mM KCl and, after 30 minutes, the contractions are quantitated. The tissues are then rinsed and reequilibrated for 50 minutes. Test compounds are then added for 10 minutes, and the tissue is rechallenged with 50 mM KCl. After 30 minutes, the contraction is recorded and used to determine the % inhibition of control.
(§3) The percent inhibition of smooth muscle contraction is calculated from response data before and after drug treatment. [formula]

trachealis muscle tissue = assay: Inhibition of calcium dependent smooth muscle contraction, trachea (P#176 Trach); set-up: species or system dog; settings: Canis lupus familiaris, 50 mM KCl contraction, read-out: P#176 Trach % INHB/μM
Description: as §1, §2, §3

[1] = target: T1, Calcium Channel (3H-nitrendipine binding, heart membranes) (Oryctolagus cuniculus, UniProt P15381); assay: Inhibition of 3H-nitrendipine binding (P#166 Nit. Binding); set-up: species or system rabbit; settings: for pIC50: rabbit heart membranes, 3H-nitrendipine 0.05-0.50 nM; for inhibition at 1 µM: @ 1.0 μM test compound
T1 construct: the heart is immediately removed, cleaned and chopped into small pieces; The tissue is homogenized; from tissue; host or cells: heart membranes of female New Zealand white rabbits (42,000×g pellet)
Description: The assay for inhibition of nitrendipine binding is performed using the following procedure:
Female, New Zealand white rabbits (1-2 kg) are sacrificed by cervical dislocation, and the heart is immediately removed, cleaned and chopped into small pieces. The tissue is homogenized in 5×volume of 0.05M Hepes buffer, pH 7.4. The homogenate is centrifuged at 4000×g for 10 minutes, and the supernatant is recentrifuged at 42,000×g for 90 minutes. The resulting membrane pellet is resuspended (0.7 ml/g weight) in 0.05M Hepes, pH 7.4 and stored at […] until used. Each tube of the binding assay contains ^3 H-nitrendipine (0.05-0.50 nM), buffer, membranes (0.10 ml), and test compound in a total volume of 1.0 ml. After 90 minutes at 4° C., the bound nitrendipine is separated from the unbound by filtration on Whatman GF/C filters. After rinsing, the filters are dried and counted in a liquid scintillation counter.
Non-specific binding of ^3 H-nitrendipine (that amount bound in the presence of excess unlabelled nitrendipine) is subtracted from the total bound to obtain specifically bound radiolabeled nitrendipine. The amount of specifically bound nitrendipine in the presence of a test compound is compared to that amount bound in the absence of a compound. A percent displacement (or inhibition) can then be obtained.

T1 sequence (P15381 whole entry, other chains not shown): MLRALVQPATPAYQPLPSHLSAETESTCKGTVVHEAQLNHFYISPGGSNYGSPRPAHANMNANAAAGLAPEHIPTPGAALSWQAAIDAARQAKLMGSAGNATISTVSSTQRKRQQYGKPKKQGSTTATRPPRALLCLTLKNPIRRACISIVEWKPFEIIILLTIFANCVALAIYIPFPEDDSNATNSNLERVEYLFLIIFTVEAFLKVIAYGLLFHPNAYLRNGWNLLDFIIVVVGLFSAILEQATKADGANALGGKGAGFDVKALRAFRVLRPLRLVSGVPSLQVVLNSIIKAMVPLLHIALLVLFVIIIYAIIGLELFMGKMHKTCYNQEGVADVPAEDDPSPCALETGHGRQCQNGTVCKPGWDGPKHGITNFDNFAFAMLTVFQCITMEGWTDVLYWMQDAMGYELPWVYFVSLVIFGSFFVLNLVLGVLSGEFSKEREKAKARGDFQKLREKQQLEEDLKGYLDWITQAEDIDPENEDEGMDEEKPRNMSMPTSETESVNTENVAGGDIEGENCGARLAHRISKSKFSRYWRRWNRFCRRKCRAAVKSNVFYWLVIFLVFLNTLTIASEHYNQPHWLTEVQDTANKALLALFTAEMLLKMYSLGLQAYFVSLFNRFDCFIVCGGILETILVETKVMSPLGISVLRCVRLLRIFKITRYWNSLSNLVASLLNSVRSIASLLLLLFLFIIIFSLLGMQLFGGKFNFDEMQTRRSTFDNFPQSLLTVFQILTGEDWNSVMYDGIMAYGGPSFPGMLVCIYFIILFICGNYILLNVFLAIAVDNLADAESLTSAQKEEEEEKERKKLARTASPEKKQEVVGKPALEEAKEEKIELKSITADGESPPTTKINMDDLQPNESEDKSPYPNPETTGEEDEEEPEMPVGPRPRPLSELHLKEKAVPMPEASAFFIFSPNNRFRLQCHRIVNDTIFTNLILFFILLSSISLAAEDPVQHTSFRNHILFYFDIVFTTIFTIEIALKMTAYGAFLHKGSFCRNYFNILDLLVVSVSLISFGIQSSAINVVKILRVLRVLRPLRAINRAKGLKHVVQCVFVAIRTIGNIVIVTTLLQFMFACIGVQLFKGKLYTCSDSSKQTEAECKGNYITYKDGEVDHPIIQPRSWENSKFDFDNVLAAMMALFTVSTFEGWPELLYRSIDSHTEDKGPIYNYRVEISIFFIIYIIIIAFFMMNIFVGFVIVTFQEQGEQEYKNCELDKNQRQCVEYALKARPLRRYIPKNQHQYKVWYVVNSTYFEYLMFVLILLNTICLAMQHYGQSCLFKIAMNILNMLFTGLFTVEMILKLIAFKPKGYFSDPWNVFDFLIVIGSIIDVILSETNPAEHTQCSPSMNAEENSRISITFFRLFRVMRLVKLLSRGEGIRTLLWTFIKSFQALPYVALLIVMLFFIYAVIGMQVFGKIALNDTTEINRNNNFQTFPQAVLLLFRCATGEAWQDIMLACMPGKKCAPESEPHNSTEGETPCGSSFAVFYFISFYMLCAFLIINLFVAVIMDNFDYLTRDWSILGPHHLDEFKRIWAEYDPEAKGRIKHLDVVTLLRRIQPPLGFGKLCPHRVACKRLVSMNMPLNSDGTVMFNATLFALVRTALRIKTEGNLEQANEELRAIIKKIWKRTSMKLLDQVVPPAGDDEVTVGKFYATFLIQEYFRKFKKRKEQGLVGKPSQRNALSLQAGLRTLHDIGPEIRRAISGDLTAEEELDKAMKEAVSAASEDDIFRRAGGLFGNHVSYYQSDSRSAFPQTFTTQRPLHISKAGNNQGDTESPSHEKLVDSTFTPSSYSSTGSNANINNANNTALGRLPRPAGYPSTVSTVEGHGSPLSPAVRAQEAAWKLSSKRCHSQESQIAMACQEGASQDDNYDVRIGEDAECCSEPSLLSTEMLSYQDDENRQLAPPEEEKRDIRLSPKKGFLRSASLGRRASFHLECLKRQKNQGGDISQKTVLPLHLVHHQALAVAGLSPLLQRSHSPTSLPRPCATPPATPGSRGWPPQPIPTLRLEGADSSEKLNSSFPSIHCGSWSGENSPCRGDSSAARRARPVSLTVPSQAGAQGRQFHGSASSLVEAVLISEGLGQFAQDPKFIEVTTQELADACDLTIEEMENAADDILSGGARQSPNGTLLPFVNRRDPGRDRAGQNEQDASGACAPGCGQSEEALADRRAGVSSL
T1 sequence (P13806 27-960 partner limits assumed, other chains not shown): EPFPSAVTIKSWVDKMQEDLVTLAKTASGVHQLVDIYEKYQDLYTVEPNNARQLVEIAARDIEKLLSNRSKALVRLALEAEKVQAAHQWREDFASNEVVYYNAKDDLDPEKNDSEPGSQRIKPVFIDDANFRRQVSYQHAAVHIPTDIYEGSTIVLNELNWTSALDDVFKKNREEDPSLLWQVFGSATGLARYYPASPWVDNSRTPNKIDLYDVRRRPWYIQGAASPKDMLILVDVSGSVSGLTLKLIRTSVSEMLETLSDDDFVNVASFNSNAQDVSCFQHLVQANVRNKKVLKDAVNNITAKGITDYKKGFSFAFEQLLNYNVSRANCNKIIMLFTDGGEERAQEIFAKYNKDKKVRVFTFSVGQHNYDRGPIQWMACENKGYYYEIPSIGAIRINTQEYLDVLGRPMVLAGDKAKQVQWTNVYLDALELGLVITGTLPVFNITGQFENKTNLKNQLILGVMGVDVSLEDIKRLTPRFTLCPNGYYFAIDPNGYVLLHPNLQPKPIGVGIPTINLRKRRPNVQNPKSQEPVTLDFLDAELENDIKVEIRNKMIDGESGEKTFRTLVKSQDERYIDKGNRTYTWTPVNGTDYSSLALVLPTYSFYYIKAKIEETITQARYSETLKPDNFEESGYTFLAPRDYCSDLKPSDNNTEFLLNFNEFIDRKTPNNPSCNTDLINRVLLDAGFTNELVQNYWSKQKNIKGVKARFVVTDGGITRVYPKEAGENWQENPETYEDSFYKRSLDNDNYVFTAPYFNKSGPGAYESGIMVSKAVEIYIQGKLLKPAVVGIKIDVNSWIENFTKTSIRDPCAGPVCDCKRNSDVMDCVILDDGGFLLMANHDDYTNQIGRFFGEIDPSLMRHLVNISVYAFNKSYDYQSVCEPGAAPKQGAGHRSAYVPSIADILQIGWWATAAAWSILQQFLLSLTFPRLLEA
T1 sequence (P13806 961-1106 partner limits assumed, other chains not shown): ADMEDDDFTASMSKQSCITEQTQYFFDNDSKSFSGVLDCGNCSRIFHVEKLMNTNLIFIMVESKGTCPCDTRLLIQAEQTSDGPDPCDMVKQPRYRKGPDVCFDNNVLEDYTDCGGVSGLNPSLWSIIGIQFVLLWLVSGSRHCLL

Row | Compound | inhibition at 0.1 µM (aorta tissue) [%] | inhibition at 1 µM (aorta tissue) [%] | inhibition at 0.3 µM (trachealis muscle tissue) [%] | inhibition at 2 µM (trachealis muscle tissue) [%] | pIC50 [1] | inhibition at 0.3 µM (aorta tissue; 0.3 μM) [%] | inhibition at 1 µM [1] [%] | inhibition at 0.1 µM (trachealis muscle tissue) [%] | inhibition at 0.01 µM (aorta tissue) [%] | inhibition at 0.01 µM (trachealis muscle tissue) [%] | inhibition at 1 µM (trachealis muscle tissue) [%] | inhibition at 0.03 µM (aorta tissue; 0.03 μM) [%] | inhibition at 0.03 µM (trachealis muscle tissue) [%]
1 | CCOC(=O)C1=C(C)NC2=C(C1c1cccc3nonc13)S(=O)(=O)CCNC2 (stereo not drawn) [2,3-(2,1,3 oxadiazolyl) / H / ethyl] | 22 | 83 | 22 | 68 | 6.18 |  |  |  |  |  |  |  | 
2 | CCOC(=O)C1=C(C)NC2=C(C1c1cccc(Cl)c1Cl)S(=O)(=O)CCN(C(=O)OC(C)(C)C)C2 (stereo not drawn) [2,3-dichloro / BOC / ethyl, Ethyl 9-(2,3-Dichlorophenyl)-4-(t-butyloxycarbonyl) -1,1-dioxo-2,3,4,5,6,9-hexahydro-7-methylpyrido[2,3-f][1,4]thiazepine-8-carboxylate] |  | 18 |  | 0 |  | 4 | 32 |  |  |  |  |  | 
3 | CCOC(=O)C1=C(C)NC2=C(C1c1cccc(Cl)c1Cl)S(=O)(=O)CCN(Cc1ccccc1)C2 (stereo not drawn) [2,3-dichloro / Bz / ethyl, Ethyl 4-N-Benzyl-9-(2,3-dichlorophenyl) -1,1-dioxo-2,3,4,5,6,9-hexahydro-7-methylpyrido [2,3-f][1,4]thiazepine-8-carboxylate] |  | 79 |  | 32 | 6.68 |  |  | 10 |  |  |  |  | 
4 | CCOC(=O)C1=C(C)NC2=C(C1c1cccc(Cl)c1Cl)S(=O)(=O)CCN(CC)C2 (stereo not drawn) [2,3-dichloro / Et / ethyl, Ethyl 9-(2,3-dichlorophenyl)-1,1-dioxo-4-ethyl-2,3,4,5,6,9-hexahydro-7-methyl-pyrido[2,3-f][1,4]-thiazepine-8-carboxylate] | 76 | 96 | 70 |  | 7.22 |  |  |  | 19 | 33 | 90 |  | 
5 | CC1=C(C(=O)OCCN(C)Cc2ccccc2)C(c2cccc(Cl)c2Cl)C2=C(CNCCS2(=O)=O)N1 (stereo not drawn) [2,3-dichloro / H / NBzNMe-ethyl, 2-(N-benzyl-N-methylamino)ethyl 9-(2,3-dichlorophenyl)-1,1-dioxo-2,3,4,5,6,9-hexahydro-7-methylpyrido[2,3-f][1,4]thiazepine-8-carboxylate] | 48 | 93 | 62 | 86 | 6.42 |  |  | 23 |  |  |  | 20 | 
6 | CCOC(=O)C1=C(C)NC2=C(C1c1cccc(Cl)c1Cl)S(=O)(=O)CCNC2 (stereo not drawn) [2,3-dichloro / H / ethyl, Ethyl 9-(2,3-dichlorophenyl)-1,1-dioxo-2,3,4,5,6,9-hexahydro-7-methyl-pyrido[2,3-f][1,4]thiazepine-8-carboxylate] | 85 | 96 |  |  | 7.00 and 6.98 |  |  | 43 | 21 |  | 73 |  | 
7 | CC1=C(C(=O)OCCN(C)Cc2ccccc2)C(c2cccc(Cl)c2Cl)C2=C(CN(C)CCS2(=O)=O)N1 (stereo not drawn) [2,3-dichloro / Me / NBzNMe-ethyl] |  |  | 71 | 88 | 6.82 |  |  | 54 |  |  |  |  | 28
8 | CCOC(=O)C1=C(C)NC2=C(C1c1cccc(Cl)c1Cl)S(=O)(=O)CCN(C)C2 (stereo not drawn) [2,3-dichloro / Me / ethyl, Ethyl 9-(2,3-dichlorophenyl)-4,7-dimethy-1,1-dioxo-2,3,4,5,6,9-hexahydropyrido[2,3-f][1,4]thiazepine-8-carboxylate] | 96 | 97 |  | 98 | 6.92 |  |  | 80 | 67 | 55 |  |  | 
9 | CCCN1CCS(=O)(=O)C2=C(C1)NC(C)=C(C(=O)OCC)C2c1cccc(Cl)c1Cl (stereo not drawn) [2,3-dichloro / Pr / ethyl] | 88 | 100 | 53 | 68 | 6.84 |  |  | 44 | 53 |  |  |  | 30
10 | CCOC(=O)C1=C(C)NC2=C(C1c1cccc(Cl)c1Cl)S(=O)(=O)CCN(C(C)C)C2 (stereo not drawn) [2,3-dichloro / iPr / ethyl] | 83 | 95 | 61 | 86 | 7.14 |  |  | 37 | 38 |  |  |  | 
11 | CCOC(=O)C1=C(C)NC2=C(C1c1ccccc1C(F)(F)F)S(=O)(=O)CCN(C(=O)OC(C)(C)C)C2 (stereo not drawn) [2-CF3 / BOC / ethyl] | 37 | 47 | 24 | 50 |  |  | 7 |  |  |  |  |  | 
12 | CCOC(=O)C1=C(C)NC2=C(C1c1ccccc1C(F)(F)F)S(=O)(=O)CCNC2 (stereo not drawn) [2-CF3 / H / ethyl] | 68 | 83 | 35 | 73 | 6.44 |  |  | 38 | 37 |  |  |  | 
13 | CCOC(=O)C1=C(C)NC2=C(C1c1c(F)cccc1Cl)S(=O)(=O)CCNC2 (stereo not drawn) [2-Cl, 6-F / H / ethyl] |  | 86 | 56 | 88 | 6.06 |  |  |  | 4.8 |  |  |  | 
14 | CCOC(=O)C1=C(C)NC2=C(C1c1cccc([N+](=O)[O-])c1)S(=O)(=O)CCNC2 (stereo not drawn) [3-nitro / H / ethyl] | 88 | 100 |  | 93 | 6.62 |  |  |  |  |  |  |  | 58
15 | CCOC(=O)C1=C(C)NC2=C(C1c1c(F)c(F)c(F)c(F)c1F)S(=O)(=O)CCN(C(=O)OC(C)(C)C)C2 (stereo not drawn) [pentafluoro / BOC / ethyl] | 0 | 37 |  | 7 |  |  | 24 |  |  |  |  |  | 
16 | CCOC(=O)C1=C(C)NC2=C(C1c1c(F)c(F)c(F)c(F)c1F)S(=O)(=O)CCNC2 (stereo not drawn) [pentafluoro / H / ethyl, Ethyl 1,1-dioxo-2,3,4,5,6,9-hexahydro-7-methyl-9-(2,3,4,5,6-pentafluorophenyl)-pyrido[2,3-f][1,4]-thiazepine-8-carboxylate] | 89 | 95 |  | 98 | 7.05 |  |  | 63 | 61 | 13 |  |  | 
17 | CCOC(=O)C1=C(C)NC2=C(C1c1c(F)c(F)c(F)c(F)c1F)S(=O)(=O)CCN(C)C2 (stereo not drawn) [pentafluoro / Me / ethyl, Ethyl 4,7-dimethyl-1,1-dioxo-2,3,4,5,6,9-hexahydro-9-(2,3,4,5,6-pentafluorophenyl)-pyrido[2,3-f][1,4]-thiazepine-8-carboxylate] |  | 97 |  |  | 7.28 |  |  | 73 | 50 | 35 | 95 |  | 
